Measurements: patent publication US5958952A, “Substituted phenylamindines, medicaments containing these compounds and process for producing them” (Dr. Karl Thomae GmbH, priority 1995, dated 1999)

Tests used:
thrombocyte aggregation = assay: Antithrombotic activity: inhibition of collagen-induced platelet (thrombocyte) aggregation in platelet-rich plasma; type: cell-based; conditions: Homo sapiens, 10 min, platelet-rich plasma from healthy test subjects, incubated with substance at 37° C. for 10 minutes, 50% change in optical density
Experimental: 2. Antithrombotic Activity:
The thrombocyte aggregation is measured by the Born and Cross method (J. Physiol. 170, 397 (1964)) in platelet-rich plasma from healthy test subjects. To inhibit clotting, the blood is mixed with 3.14% sodium citrate in a ratio by volume of 1:10.
Collagen-Induced Aggregation
The progress of the decrease in optical density of the platelet suspension is measured photometrically after the addition of the aggregation-triggering substance and recorded. The rate of aggregation is calculated from the angle of inclination of the density curve. The point on the curve at which there is greatest light permeability is used to calculate the optical density.
The quantity of collagen is selected to be as small as possible but still sufficient to produce an irreversible reaction curve. The standard commercial collagen made by Hormonchemie of Munich is used.
Before the collagen is added, the plasma is incubated with the substance at 37° C. for 10 minutes.
From the measurements obtained, an EC50 was determined graphically corresponding to a 50% change in the optical density in terms of inhibiting aggregation.

human thrombocytes = assay: Inhibiting the binding of ^3 H-BIBU 52 to human thrombocytes; conditions: human thrombocytes in plasma; ^3 H-BIBU 52 final concentration 5 nM; ambient temperature, 20 minutes; read-out: ^3 H-BIBU-52-binding test IC50
Experimental: 1. Inhibiting the Binding of ^3 H-BIBU 52 to Human Thrombocytes:
A suspension of human thrombocytes in plasma is incubated with ^3 H-BIBU 52 [=(3S,5S)-5-[(4'-amidino-4-biphenylyl)oxymethyl]-3-[(carboxy)methyl]-2-pyrrolidinone[3-^3 H-4-biphenylyl]], replacing the ligand ^125 I-fibrinogen known from the literature, (cf. DE-A-4,214.245) and various concentrations of the substance to be tested. The free and bound ligand is separated off by centrifuging and quantitatively determined by scintillation counting. From the results obtained, the inhibition of ^3 H-BIBU 52 binding by the test substance is determined.
In order to do this, donor blood is taken from an anticubital vein and anticoagulated with trisodium citrate (final concentration 13 mM). The blood is centrifuged for 10 minutes at 170×g and the supernatant platelet-rich plasma (PRP) is removed. The residual blood is sharply centrifuged off once more in order to obtain plasma. The PRP is diluted 1:10 with autologous plasma. 750 μl are incubated with 50 μl of physiological saline, 100 μl of test substance solution, 50 μl of ^14 C sucrose (3.700 Bq) and 50 μl of ^3 H-BIBU 52 (final concentration: 5 nM) at ambient temperature for 20 minutes. […] 100 μl of it are measured in order to determine the free ligand. The pellet is dissolved in 500 μl of 0.2N NaOH, 450 μl are mixed with 2 ml of scintillator and 25 μl of 5N HCl and measured. […]

IC50 (human thrombocytes) [µM] | Compound | EC50 (thrombocyte aggregation) [µM]
0.051 | N=C(N)c1ccc(NC(=O)CCN2CCC(CC(=O)O)CC2)cc1 [1(1), 1-[2-[(4-amidinophenyl)aminocarbonyl]ethyl]-4-carboxymethyl-piperidine] | 0.31
0.0037 | N=C(N)c1ccc(NC(=O)CCC2CCN(CC(=O)O)CC2)cc1 [Example 1, 4-[2-[(4-amidinophenyl)aminocarbonyl]ethyl]-1-carboxymethyl-piperidine] | 0.037
